Test results from ChEMBL document CHEMBL1201862, “PubChem BioAssay data set” (2004).
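Tested at 5 concentrations; 48 h exposure; 96-well plates; endpoints linearly interpolated, else capped at highest concentration. GI50 = concentration required for 50% inhibition of growth.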 The source made the active and inactive calls. Cut-off read from the data, not from the text of the source: active = GI50 up to about 1.1 µM and inactive = higher.

How the values were obtained:
Assay in all cases: inhibition of tumour cell growth, NCI panel, 48 h
A498 = test system: A498
A549 = test system: A549
CAKI-1 = test system: CAKI-1
CCRF-CEM = test system: CCRF-CEM
COLO 205 = test system: COLO 205
DLD-1 = test system: DLD-1
DMS-114 = test system: DMS-114
DMS-273 = test system: DMS-273
EKVX = test system: EKVX
HCC 2998 = test system: HCC 2998
HCT-116 = test system: HCT-116
HCT-15 = test system: HCT-15
HL-60 = test system: HL-60
HOP-18 = test system: HOP-18
HOP-62 = test system: HOP-62
HOP-92 = test system: HOP-92
HT-29 = test system: HT-29
IGROV-1 = test system: IGROV-1
K562 = test system: K562
KM-20L2 = test system: KM-20L2
KM12 = test system: KM12
LOX IMVI = test system: LOX IMVI
M19-MEL = test system: M19-MEL
MCF7 = test system: MCF7
MOLT-4 = test system: MOLT-4
Malme-3M = test system: Malme-3M
NCI-H226 = test system: NCI-H226
NCI-H23 = test system: NCI-H23
NCI-H460 = test system: NCI-H460
NCI-H522 = test system: NCI-H522
NCI/ADR-RES = test system: NCI/ADR-RES
OVCAR-3 = test system: OVCAR-3
OVCAR-4 = test system: OVCAR-4
OVCAR-5 = test system: OVCAR-5
OVCAR-8 = test system: OVCAR-8
RPMI-8226 = test system: RPMI-8226
RXF 393 = test system: RXF 393
SF-268 = test system: SF-268
SF-295 = test system: SF-295
SF-539 = test system: SF-539
SK-MEL-28 = test system: SK-MEL-28
SK-MEL-2 = test system: SK-MEL-2
SK-MEL-5 = test system: SK-MEL-5
SK-OV-3 = test system: SK-OV-3
SN12C = test system: SN12C
SNB-19 = test system: SNB-19
SNB-75 = test system: SNB-75
SNB-78 = test system: SNB-78
SW-620 = test system: SW-620
U-251 = test system: U-251
UACC-257 = test system: UACC-257
UACC-62 = test system: UACC-62
UO-31 = test system: UO-31
XF498 = test system: XF498
786-0 = test system: 786-0
ACHN = test system: ACHN
LXFL 529 = test system: LXFL 529
M14 = test system: M14
TK-10 = test system: TK-10

Cc1ccc(C2COc3cc(O)c(O)cc3C2)cc1 (configuration not stated)
GI50 (A498): 86.7 µM (inactive) | GI50 (A549): 43.6 µM (inactive) | GI50 (CAKI-1): 15.9 µM (inactive) | GI50 (CCRF-CEM): 1.82 µM (inactive) | GI50 (COLO 205): 12.5 µM (inactive) | GI50 (DLD-1): 17.5 µM (inactive) | GI50 (DMS-114): 12.7 µM (inactive) | GI50 (DMS-273): 16.2 µM (inactive) | GI50 (EKVX): 20.4 µM (inactive) | GI50 (HCC 2998): 35.1 µM (inactive) | GI50 (HCT-116): 12.4 µM (inactive) | GI50 (HCT-15): 15 µM | GI50 (HL-60): 1.64 µM (inactive) | GI50 (HOP-18): 43.5 µM (inactive) | GI50 (HOP-62): 97.9 µM (inactive) | GI50 (HOP-92): 14.4 µM (inactive) | GI50 (HT-29): 29.7 µM (inactive) | GI50 (IGROV-1): 14.6 µM (inactive) | GI50 (K562): 7.28 µM (inactive) | GI50 (KM-20L2): 35.9 µM (inactive) | GI50 (KM12): 22.4 µM (inactive) | GI50 (LOX IMVI): 12.1 µM (inactive) | GI50 (M19-MEL): 19 µM (inactive) | GI50 (MCF7): 25.9 µM (inactive) | GI50 (MOLT-4): 4.48 µM (inactive) | GI50 (Malme-3M): 18.7 µM (inactive) | GI50 (NCI-H226): 45.2 µM (inactive) | GI50 (NCI-H23): 23.4 µM (inactive) | GI50 (NCI-H460): 55.3 µM (inactive) | GI50 (NCI-H522): 4.06 µM (inactive) | GI50 (NCI/ADR-RES): 15.7 µM (inactive) | GI50 (OVCAR-3): 13.8 µM (inactive) | GI50 (OVCAR-4): 20.4 µM (inactive) | GI50 (OVCAR-5): 94 µM (inactive) | GI50 (OVCAR-8): 15 µM (inactive) | GI50 (RPMI-8226): 7.11 µM (inactive) | GI50 (RXF 393): 11.3 µM (inactive) | GI50 (SF-268): 13.2 µM (inactive) | GI50 (SF-295): 32.6 µM (inactive) | GI50 (SF-539): 22.4 µM (inactive) | GI50 (SK-MEL-28): 13.1 µM (inactive) | GI50 (SK-MEL-2): 19.2 µM (inactive) | GI50 (SK-MEL-5): 18.9 µM (inactive) | GI50 (SK-OV-3): 139 µM (inactive) | GI50 (SN12C): 20.7 µM (inactive) | GI50 (SNB-19): 39.4 µM (inactive) | GI50 (SNB-75): 42 µM (inactive) | GI50 (SNB-78): 31.6 µM (inactive) | GI50 (SW-620): 11.1 µM (inactive) | GI50 (U-251): 17.7 µM (inactive) | GI50 (UACC-257): 21.3 µM (inactive) | GI50 (UACC-62): 18.5 µM (inactive) | GI50 (UO-31): 30 µM (inactive) | GI50 (XF498): 9.12 µM (inactive)

Clc1ccc(SCCCCCCCCCCSc2ccc(Cl)cc2)cc1
GI50 (786-0): > 55.6 µM (inactive) | GI50 (A498): > 73.8 µM (inactive) | GI50 (A549): > 73.8 µM (inactive) | GI50 (ACHN): > 58.7 µM (inactive) | GI50 (CAKI-1): > 100 µM (inactive) | GI50 (CCRF-CEM): > 100 µM (inactive) | GI50 (COLO 205): > 100 µM (inactive) | GI50 (DLD-1): > 100 µM (inactive) | GI50 (DMS-114): > 100 µM (inactive) | GI50 (DMS-273): > 100 µM (inactive) | GI50 (EKVX): > 70 µM (inactive) | GI50 (HCC 2998): > 46.1 µM (inactive) | GI50 (HCT-116): > 100 µM (inactive) | GI50 (HCT-15): > 54.2 µM | GI50 (HL-60): > 100 µM (inactive) | GI50 (HOP-18): > 100 µM (inactive) | GI50 (HOP-62): > 76.2 µM (inactive) | GI50 (HOP-92): > 100 µM (inactive) | GI50 (HT-29): > 100 µM (inactive) | GI50 (IGROV-1): > 100 µM (inactive) | GI50 (K562): > 91.2 µM (inactive) | GI50 (KM-20L2): > 63.7 µM (inactive) | GI50 (KM12): > 55.1 µM (inactive) | GI50 (LOX IMVI): > 100 µM (inactive) | GI50 (LXFL 529): > 100 µM (inactive) | GI50 (M14): > 100 µM (inactive) | GI50 (M19-MEL): > 100 µM (inactive) | GI50 (MOLT-4): > 100 µM (inactive) | GI50 (Malme-3M): > 56.5 µM (inactive) | GI50 (NCI-H226): > 100 µM (inactive) | GI50 (NCI-H23): > 100 µM (inactive) | GI50 (NCI-H460): > 59.7 µM (inactive) | GI50 (NCI-H522): > 100 µM (inactive) | GI50 (OVCAR-3): > 56.8 µM (inactive) | GI50 (OVCAR-4): > 100 µM (inactive) | GI50 (OVCAR-5): > 61 µM (inactive) | GI50 (OVCAR-8): > 61 µM (inactive) | GI50 (RPMI-8226): > 100 µM (inactive) | GI50 (RXF 393): > 100 µM (inactive) | GI50 (SF-268): > 100 µM (inactive) | GI50 (SF-295): > 57.9 µM (inactive) | GI50 (SF-539): > 100 µM (inactive) | GI50 (SK-MEL-28): > 100 µM (inactive) | GI50 (SK-MEL-2): > 56.1 µM (inactive) | GI50 (SK-MEL-5): > 55.1 µM (inactive) | GI50 (SK-OV-3): > 100 µM (inactive) | GI50 (SN12C): > 100 µM (inactive) | GI50 (SNB-19): > 100 µM (inactive) | GI50 (SNB-75): > 100 µM (inactive) | GI50 (SNB-78): > 100 µM (inactive) | GI50 (SW-620): 37.5 µM (inactive) | GI50 (TK-10): > 61.9 µM (inactive) | GI50 (U-251): > 57.4 µM (inactive) | GI50 (UACC-257): > 57 µM (inactive) | GI50 (UACC-62): > 100 µM (inactive) | GI50 (UO-31): > 100 µM (inactive) | GI50 (XF498): > 100 µM (inactive)

C[C@@H](NC1CCCC[C@@H]1O)c1ccccc1 (some centres not stated)
GI50 (786-0): > 100 µM (inactive) | GI50 (A549): > 100 µM (inactive) | GI50 (ACHN): > 100 µM (inactive) | GI50 (CAKI-1): > 100 µM (inactive) | GI50 (CCRF-CEM): > 100 µM (inactive) | GI50 (COLO 205): > 100 µM (inactive) | GI50 (DLD-1): > 100 µM (inactive) | GI50 (DMS-273): > 100 µM (inactive) | GI50 (EKVX): > 100 µM (inactive) | GI50 (HCC 2998): > 100 µM (inactive) | GI50 (HCT-116): > 100 µM (inactive) | GI50 (HCT-15): > 100 µM | GI50 (HL-60): > 100 µM (inactive) | GI50 (HOP-18): > 100 µM (inactive) | GI50 (HOP-62): > 100 µM (inactive) | GI50 (HOP-92): > 100 µM (inactive) | GI50 (HT-29): > 100 µM (inactive) | GI50 (IGROV-1): > 100 µM (inactive) | GI50 (K562): > 100 µM (inactive) | GI50 (KM-20L2): > 100 µM (inactive) | GI50 (KM12): > 100 µM (inactive) | GI50 (LOX IMVI): > 100 µM (inactive) | GI50 (LXFL 529): > 100 µM (inactive) | GI50 (M14): > 100 µM (inactive) | GI50 (M19-MEL): > 100 µM (inactive) | GI50 (MOLT-4): > 100 µM (inactive) | GI50 (Malme-3M): > 100 µM (inactive) | GI50 (NCI-H226): > 100 µM (inactive) | GI50 (NCI-H460): > 100 µM (inactive) | GI50 (OVCAR-3): > 100 µM (inactive) | GI50 (OVCAR-4): > 100 µM (inactive) | GI50 (OVCAR-5): > 100 µM (inactive) | GI50 (OVCAR-8): > 100 µM (inactive) | GI50 (RPMI-8226): > 100 µM (inactive) | GI50 (RXF 393): > 100 µM (inactive) | GI50 (SF-295): > 100 µM (inactive) | GI50 (SK-MEL-28): > 100 µM (inactive) | GI50 (SK-MEL-2): > 100 µM (inactive) | GI50 (SK-MEL-5): > 100 µM (inactive) | GI50 (SK-OV-3): > 100 µM (inactive) | GI50 (SN12C): > 100 µM (inactive) | GI50 (SNB-19): > 100 µM (inactive) | GI50 (SNB-75): 98.4 µM (inactive) | GI50 (SNB-78): > 100 µM (inactive) | GI50 (SW-620): > 100 µM (inactive) | GI50 (TK-10): > 100 µM (inactive) | GI50 (U-251): > 100 µM (inactive) | GI50 (UACC-257): > 100 µM (inactive) | GI50 (UACC-62): > 100 µM (inactive) | GI50 (UO-31): > 100 µM (inactive) | GI50 (XF498): > 100 µM (inactive)
